# From paper PMC3945819, “Ligand-Dependent Dynamics of the Active-Site Lid in Bacterial Dimethylarginine Dimethylaminohydrolase” (Biochemistry, 2014)
# Changes are numbered by the printed parent chain. Entries after “also recorded” stand apart in the source; their conditions may differ.
# What was measured:
# [1] = target: T1, DM-PaDDAH (Arg40Glu/Arg98His double mutant PaDDAH) (Pseudomonas aeruginosa, UniProt Q9I4E3, R40E/R98H); assay: NMR 15N,1H-HSQC ligand titration of DM-PaDDAH; assay type: binding; conditions: for binding of byproduct to the protein by NMR titration: separate NMR titrations
# T1 construct: the 254 residue DM-PaDDAH; polyhistidine (cleaved yes); made in house; host or cells: Escherichia coli BL21 (DE3)
# T1 sequence (Q9I4E3 1-254 R40E/R98H): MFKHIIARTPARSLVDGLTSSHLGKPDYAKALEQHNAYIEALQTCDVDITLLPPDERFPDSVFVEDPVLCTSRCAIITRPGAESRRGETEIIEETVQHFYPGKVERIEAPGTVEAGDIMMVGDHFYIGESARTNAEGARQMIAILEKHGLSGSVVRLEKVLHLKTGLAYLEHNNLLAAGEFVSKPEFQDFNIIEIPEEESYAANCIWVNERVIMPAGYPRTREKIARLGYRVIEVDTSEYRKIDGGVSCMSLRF
# Method: (§1) For NMR measurements, the protein samples were prepared at 0.8 mM concentration (for resonance assignments and relaxation measurements) or 0.3 mM (for ligand titrations) in buffer A, supplemented with 10% v/v D2O. Saturating concentrations of L-citrulline were included in the bound state samples: 15 mM for DM-PaDDAH and 1.0 mM for TM-PaDDAH. A variety of NMR spectrometers were used during this work: resonance assignments were obtained from 3D triple resonance data sets (HNCA, HNCACB, CBCACONH, HNCO, HN(CA)CO)[12] obtained at either 600 or 700 MHz ^1H frequency. Two-dimensional ^15N, ^1H-HSQC experiments to monitor ligand binding were recorded using a 700 MHz instrument. ^15N relaxation measurements[13],[14] were performed at both 600 and 800 MHz. The majority of the data sets were recorded using a cryogenically cooled triple resonance probe, with the sample temperature maintained at a calibrated 25 °C. The pulse sequences employed H2O-selective “flip-back” pulses and WATERGATE to minimize the effects of H^N-resonance cross-saturation.[15],[16] Ligand-induced chemical shift perturbations differences for ligand titrations were computed using the formula Δδ = [(Δδ^1H^N)^2 + (Δδ^15N/5)^2]^1/2.
# [2] = target: T2, TM-PaDDAH (Arg40Glu/Arg98His/Cys249Ser triple mutant PaDDAH) (Pseudomonas aeruginosa, UniProt Q9I4E3, C249S/R40E/R98H); assay: NMR 15N,1H-HSQC ligand titration of TM-PaDDAH; assay type: binding; conditions: NMR peak intensity titration (Gly24, Glu158, Lys159), 0.3 mM TM-PaDDAH, 25 °C; read-out: dissociation constant KD^(TM/L-cit)
# T2 construct: polyhistidine (cleaved yes); made in house; host or cells: Escherichia coli BL21 (DE3)
# T2 sequence (Q9I4E3 1-254 R40E/R98H/C249S): T1 sequence (Q9I4E3 1-254 R40E/R98H) with C249S
# Method: as §1
# [3] = target: T3, MDCC-Thr19Cys TM-PaDDAH (Pseudomonas aeruginosa, UniProt Q9I4E3, C249S/R40E/R98H/T19C); assay: MDCC fluorescence titration, Thr19Cys variant; assay type: binding; conditions: static MDCC fluorescence titration, 25 °C, buffer A; fluorescence decreased; read-out: equilibrium dissociation constant
# T3 construct: polyhistidine (cleaved yes); made in house; host or cells: Escherichia coli BL21 (DE3)
# T3 sequence (Q9I4E3 1-254 T19C/R40E/R98H/C249S): T1 sequence (Q9I4E3 1-254 R40E/R98H) with T19C, C249S
# Method: (§2) DM- or TM-PaDDAH constructs were mutated to contain an additional, solvent-exposed Cys residue at residue positions corresponding to Thr19, Ser 20, Ser84, and Asp244. Following expression, the purified proteins were each incubated in buffer A with 1 mM dithiothreitol (DTT) for 0.5 h. The sample was then passed through a desalting PD-10 column (GE Healthcare) in buffer A and concentrated to 100 μM. N-[2-(1-Maleimidyl)ethyl]-7-(diethylamino)coumarin-3-carboxamide (MDCC)[32] dissolved in DMF (20 mM) was added to a 2-fold excess, and the solution was incubated for 1 h. The reaction mixture was passed again through a fresh desalting column to remove unreacted label. The labeled protein concentration was measured by spectrophotometry (ε430 (MDCC) = 46 800 M^–1 cm^–1, ε280(MDCC) = 7470 M^–1 cm^–1, ε280(PaDDAH) = 18 910 M^–1 cm^–1). Formation of the product was assessed by electrospray ionization mass spectrometry.
# (§3) PaDDAH fluorescence spectra were measured at 25 °C on an FP-6300 spectrofluorometer (Jasco Ltd.) in buffer A. MDCC fluorescence was excited at 430 nm and emission was recorded at 476 nm. The change in fluorescence emission intensity with ligand concentration was fit to a 1:1 binding isotherm using nonlinear least-squares Python code written in-house.
# [4] = target: T4, MDCC-Ser20Cys TM-PaDDAH (fl-TM-PaDDAH) (Pseudomonas aeruginosa, UniProt Q9I4E3, C249S/R40E/R98H/S20C); assay: MDCC fluorescence titration, Ser20Cys variant; assay type: binding
# T4 construct: polyhistidine (cleaved yes); made in house; host or cells: Escherichia coli BL21 (DE3)
# T4 sequence (Q9I4E3 1-254 S20C/R40E/R98H/C249S): T1 sequence (Q9I4E3 1-254 R40E/R98H) with S20C, C249S
# Method: as §2, §3
# [5] = target: T5, MDCC-Ser84Cys TM-PaDDAH (Pseudomonas aeruginosa, UniProt Q9I4E3, C249S/R40E/R98H/S84C); assay: MDCC fluorescence titration, Ser84Cys variant; assay type: binding; conditions: static MDCC fluorescence titration, 25 °C, buffer A; fluorescence decreased; read-out: equilibrium dissociation constant
# T5 construct: polyhistidine (cleaved yes); made in house; host or cells: Escherichia coli BL21 (DE3)
# T5 sequence (Q9I4E3 1-254 R40E/S84C/R98H/C249S): T1 sequence (Q9I4E3 1-254 R40E/R98H) with S84C, C249S
# Method: as §2, §3
# [6] = target: T6, MDCC-Asp244Cys TM-PaDDAH (Pseudomonas aeruginosa, UniProt Q9I4E3, C249S/D244C/R40E/R98H); assay: MDCC fluorescence titration, Asp244Cys variant; assay type: binding; conditions: static MDCC fluorescence titration, 25 °C, buffer A; fluorescence decreased; read-out: equilibrium dissociation constant
# T6 construct: polyhistidine (cleaved yes); made in house; host or cells: Escherichia coli BL21 (DE3)
# T6 sequence (Q9I4E3 1-254 R40E/R98H/D244C/C249S): T1 sequence (Q9I4E3 1-254 R40E/R98H) with D244C, C249S
# Method: as §2, §3
# [7] = target: T4, MDCC-Ser20Cys TM-PaDDAH (fl-TM-PaDDAH); assay: Stopped-flow fluorescence binding kinetics with fl-TM-PaDDAH
# Method: (§4) Stopped-flow experiments were carried out in buffer A at 25 °C using a HiTech SF61 DX2 stopped-flow instrument equipped with a Xe/Hg lamp (TgK Scientific, UK). MDCC fluorescence was excited at 436 nm, and emission was detected by a photomultiplier after a 455 nm cutoff filter (Schott glass). Protein (1 μM) was mixed with the ligand (ADMA or L-citrulline) at various concentrations up to 4 mM. In the mixing cell, concentrations were half these. Each fluorescence time course was fitted to a single exponential function [drawing 1] with the observed first-order rate constant, kobs, and maximum fluorescence change, ΔFmax.
# (§5) For mixing L-citrulline with MDCC-Ser20Cys TM-PaDDAH (fl-TM-PaDDAH), the dependence of kobs on L-citrulline concentration ([L-cit]) was linearly fitted for the association reaction: [drawing 2] [drawing 3] For the mixing of L-citrulline with MDCC-Ser20Cys DM-PaDDAH (fl-DM-PaDDAH) conversion of the substrate to products is included, using this reaction scheme: [drawing 4] [drawing 5] where kcat is the rate constant for the conversion of the enzyme–substrate complex to dissociated products. Under the pseudo-first-order conditions of the experiment, where the change in fluorescence was attributed to the formation of the fl-DM-PaDDAH/ADMA complex, the dependence of kobs on ADMA concentration was fitted to a straight-line graph: [drawing 6]
# [8] = target: T7, MDCC-Ser20Cys DM-PaDDAH (fl-DM-PaDDAH) (Pseudomonas aeruginosa, UniProt Q9I4E3, R40E/R98H/S20C); assay: Stopped-flow fluorescence binding kinetics with fl-DM-PaDDAH
# T7 construct: the 254 residue DM-PaDDAH; polyhistidine (cleaved yes); made in house; host or cells: Escherichia coli BL21 (DE3)
# T7 sequence (Q9I4E3 1-254 S20C/R40E/R98H): T1 sequence (Q9I4E3 1-254 R40E/R98H) with S20C
# Method: as §4, §5
# [9] = target: wild-type PaDDAH; conditions: wild-type protein; read-out: Ki^(L-cit); cited from earlier work
# [10] = target: T8, TM-PaDDAH (Pseudomonas aeruginosa, UniProt Q9I4E3, C249S/R40E/R98H); assay: Substrate conversion by TM-PaDDAH observed by 1D 1H NMR; assay type: biochemical; conditions: conversion of ADMA to DMA and L-citrulline, high TM-PaDDAH concentration, over hours
# T8 construct: polyhistidine (cleaved yes); made in house; host or cells: Escherichia coli BL21 (DE3)
# T8 sequence (Q9I4E3 1-254 R40E/R98H/C249S): T1 sequence (Q9I4E3 1-254 R40E/R98H) with C249S
# Method: as §1
# [11] = system: unmodified DM-PaDDAH; conditions: estimated previously for unmodified DM-PaDDAH; cited from earlier work
# [12] = target: Cys249 (UniProt position 249, DGGVSCMSLRF); conditions: ligand-free (absence of ligand); cited from earlier work
compound,measurement,setting,value
CN [methylamine],binding of byproduct to the protein by NMR titration,[1],did not detectably bind
NC(=O)NCCC[C@H](N)C(=O)O [L-citrulline],Kd,"[1]; NMR chemical shift titration, 0.3 mM DM-PaDDAH, 1:1 model, buffer A pH 7.0, 25 °C, read-out: dissociation constant KD^(DM/L-cit)",3600 ± 100 µM
same,koff,"[1]; from NMR KD and assumed kon similar to kon^(TM/L-cit) and kon^(DM/ADMA), read-out: koff^(DM/L-cit) predicted",~500 s⁻¹
same,Kd,[2],3.5 ± 1.5 µM
same,Kd,[3],10.8 ± 1.1 µM
same,Kd,"[4]; static MDCC fluorescence titration, 25 °C, buffer A, fluorescence increased, read-out: equilibrium dissociation constant",7.2 ± 1.6 µM
same,Kd,[5],15.7 ± 2.8 µM
same,Kd,[6],23.5 ± 2.7 µM
same,Kd,"[7]; from stopped-flow binding kinetics, read-out: predicted equilibrium dissociation constant KD^(TM/L-cit) (= koff/kon)",8.4 µM
same,koff,"[7]; stopped-flow, linear fit of kobs vs concentration, 25 °C, read-out: koff^(TM/L-cit)",0.86 s⁻¹
same,kon,"[7]; stopped-flow, linear fit of kobs vs concentration, 25 °C, read-out: kon^(TM/L-cit)",100000 M⁻¹ s⁻¹
same,fluorescence signal for binding to fl-DM-PaDDAH,[8],no signal for binding
same,Ki,[9],8400 µM
"CN(C)C(=N)NCCCC(N)C(=O)O (stereo not drawn) [ADMA, asymmetric N^η,N^η-dimethylarginine]",fluorescence response / binding of substrate to fl-TM-PaDDAH,[4]; low protein concentrations of fluorescence experiments,no fluorescence change; also recorded: no evidence of substrate binding or turnover
same,binding tighter than for the reaction product L-citrulline,[8]; KD^(DM/ADMA) versus KD^(DM/L-cit),30 fold
same,koff^(DM/ADMA),[8]; assuming kcat = 0.5 s^–1,2.0 s^–1
same,kon^(DM/ADMA),"[8]; stopped-flow, linear fit of kobs vs concentration, 25 °C",1.8 × 10^5 M^–1 s^–1
same,catalytic activity of the mutant enzyme,[10],~0.04 h^–1
same,kcat,[11],0.5 s^–1
CNC [dimethylamine],binding of byproduct to the protein by NMR titration,[1],did not detectably bind
Dimethylarginine dimethylaminohydrolase (PaDDAH) (Pseudomonas aeruginosa),pKa,[12],8.8
